From paper PMC3857906, “Ligand-Specific Regulation of the Endogenous Mu-Opioid Receptor by Chronic Treatment with Mu-Opioid Peptide Agonists” (BioMed Research International, 2013)
Read-outs that look alike come from different tables or passages of the source.

Columns and labels:
[1] = Tail-flick (TF) antinociceptive assay after icv peptide administration; assay type: in vivo, rat; conditions: for treatment duration until behavioral tolerance complete: 10 μg icv twice daily, data not shown
Procedure: For intracerebroventricular (icv) peptide administration, the rats were implanted with a stainless steel Luer cannula (10 mm long) aimed at the right lateral cerebral ventricle under Nembutal (35 mg/kg, intraperitoneally) anesthesia. The stereotaxic coordinates were 0.2 mm posterior, 1.7 mm lateral to the bregma, and 3.7 mm deep from the dural surface, according to the atlas of Pellegrino et al.. Cannulas were secured to the skull with dental cement and acrylate. The experiments were started 5 days after icv cannulation. All icv treatments were delivered to freely moving animals to prevent unspecific effects. Upon conclusion of the experiments, 10 μL of methylene blue was injected into the ventricle of decapitated animals and the position of the cannula was inspected visually. Animals with improper cannula placement were excluded from the final statistical analysis.
(§1) The peptides were dissolved in artificial cerebrospinal fluid (CSF) and injected in a volume of 2 μL. Endomorphins were administered either acutely at the indicated doses (100 pg–20 μg) or chronically at 20 μg for 10 days (twice daily) and tested at the indicated times. Vehicle control groups obtaining CSF were used in all experiments, and no changes were detected in the antinociceptive response of the control group. […] Animals were killed 16 hrs after drug treatments by decapitation immediately followed by subcellular fractionation.
The original method of D'Amour was used to determine analgesia in the rat by measuring the time required to respond to a radiating heat stimulus. A beam light was focused on the tip of the tail, and the latency required for the rat to remove its tail was determined before (baseline) and after drug administration. The animals were tested at the times shown after injection of the peptides. The antinociceptive effect was expressed according to the equation: (TFn − TFo) × 100/TFmax − TFo, where TFo is the tail-flick latency before drug administration, TFn is the value of a repeated corresponding measurement after drug injection, and TFmax indicates the cutoff time which was set at 10 sec in our assays. Statistical analysis of the data of tail-flick antinociceptive test was made by ANOVA. For significant ANOVA values, groups were compared by Tukey's test for multiple comparisons with unequal cell size. A probability level, P < 0.05, was accepted to label significant differences.

[2] = molecular target: T1, mu-opioid receptors (coupling to G-proteins) (Rattus norvegicus, UniProt P33535); experiment: DAMGO-stimulated [35S]GTPγS binding in rat brain subcellular fractions (SPM, MI) after in vivo chronic opioid peptide treatment; assay type: biochemical; conditions: for effect of chronic treatment on G-protein coupling / [35S]GTPγS incorporation: 10 μg icv twice daily for 8 days
T1 construct: fresh forebrains of four rats were pooled, gently homogenized; from tissue; host or cells: rat forebrain, synaptic plasma membrane (SPM) and microsomal (MI) fractions, from vehicle- or peptide-treated animals
T1 sequence (P33535 whole entry): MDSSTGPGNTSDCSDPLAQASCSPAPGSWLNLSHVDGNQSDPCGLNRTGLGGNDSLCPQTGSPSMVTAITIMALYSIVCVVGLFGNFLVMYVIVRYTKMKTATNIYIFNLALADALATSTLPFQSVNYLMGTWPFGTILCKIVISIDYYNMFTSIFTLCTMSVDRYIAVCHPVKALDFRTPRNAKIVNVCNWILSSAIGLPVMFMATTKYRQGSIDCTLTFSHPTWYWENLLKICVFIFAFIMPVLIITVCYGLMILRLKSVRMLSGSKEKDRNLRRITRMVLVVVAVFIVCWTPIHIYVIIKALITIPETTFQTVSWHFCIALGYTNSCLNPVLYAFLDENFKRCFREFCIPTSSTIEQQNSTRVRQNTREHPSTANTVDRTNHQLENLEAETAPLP
Procedure: The peptides were dissolved in artificial cerebrospinal fluid (CSF) and injected in a volume of 2 μL. […] Animals were killed 16 hrs after drug treatments by decapitation immediately followed by subcellular fractionation.
Subcellular fractions of rat brains were purified as published. Briefly, fresh forebrains of four rats were pooled, gently homogenized in 10 volumes (v/w) of ice-cold buffer (5 mM Tris-HCl pH 7.4, 50 μM CaCl2, 0.5 mM dithiothreitol), and supplemented with 10% sucrose. All sucrose solutions were made in the above buffer. The homogenate was spun at 1,000 ×g for 10 min. The resulting pellet was resuspended in the above buffer and spun again. The combined supernatants were spun at 12,000 ×g for 20 min. The pellets were suspended in 10% sucrose and subjected to consecutive centrifugations at 20,000 ×g for 25 min and 14,000 ×g for 20 min twice resulting in crude synaptic plasma membranes (SPM). The resulting pellets were lysed followed by fractionation on a 10%, 28.5%, and 34% sucrose density step gradient that was spun at 100,000 ×g for 2 h. Highly enriched SPMs were obtained from the 28/34% interface. Crude microsomal (MI) fractions were obtained from the 12,000 ×g supernatant by consecutive centrifugations at 20,000 ×g for 25 min and 100,000 ×g for 1 h. MI fractions were purified on a 10% and 28.5% sucrose step gradient centrifuged at 100,000 ×g for 2 h and collected at 10/28.5% interface. SPM and MI fractions were diluted threefold with 50 mM Tris-HCl buffer and pelleted at 100,000 ×g for 1 h to remove sucrose. The resulting pellets were taken up in 50 mM Tris-HCl (pH 7.4) buffer to yield in 0.3–0.8 mg membrane protein/ml and were freshly used.
(§2) The assay was performed as published with slight modifications. Briefly, rat brain membrane fractions (≈10 μg of protein) were incubated with [^35S]GTPγS (0.05 nM) and 5-6 concentrations (10^−9−10^−4 M) of opioid peptides in the presence of 100 μM GDP in Tris-EGTA (50 mM Tris-HCl, 1 mM EGTA and 5 mM MgCl2; pH 7.4) buffer in a total volume of 1 mL for 60 min at 30°C. Nonspecific binding was determined with 10 μM GTPγS and subtracted. Bound and free [^35S]GTPγS were separated by vacuum filtration through Whatman GF/F filters using a Brandel M24-R Cell Harvester (Brandel, Gaithersburg, MD, USA). Filters were rapidly washed with 3 × 5 mL ice-cold 50 mM Tris-HCl (pH 7.4) buffer, air-dried, and counted in a toluene-based scintillation cocktail in a Wallac 1409 scintillation counter (Wallac, Turku, Finland). All assays were performed in triplicate and repeated at least three times. Curves were constructed and analyzed by fitting sigmoidal dose-response curves using the GraphPad Prism 4 program (GraphPad Prism Software Inc) to obtain potency (EC50, concentration of the ligand to give half-maximal effect) and efficacy (E max, % maximal stimulation over basal activity) values. Basal activities were measured in the absence of opioid ligands and set as 0%. The data reported are means ± S.E.M.

[3] = molecular target: T2, mu-opioid receptors (Rattus norvegicus, UniProt P33535); experiment: [3H]DAMGO homologous displacement binding in rat brain subcellular fractions (SPM, MI) after in vivo treatment; design: fresh forebrains of four rats were pooled, gently homogenized; from tissue; host or cells: rat forebrain, synaptic plasma membrane (SPM) and microsomal (MI) fractions, from vehicle- or peptide-treated animals; conditions: chronic treatment, vs vehicle control
T2 sequence (P33535 whole entry): as above
Procedure: as §1, with “times.” for “times. Vehicle control groups obtaining CSF were used in all experiments, and no changes were detected in the antinociceptive response of the control group.”
Subcellular fractions of rat brains were purified as published. Briefly, fresh forebrains of four rats were pooled, gently homogenized in 10 volumes (v/w) of ice-cold buffer (5 mM Tris-HCl pH 7.4, 50 μM CaCl2, 0.5 mM dithiothreitol), and supplemented with 10% sucrose. All sucrose solutions were made in the above buffer. The homogenate was spun at 1,000 ×g for 10 min. The resulting pellet was resuspended in the above buffer and spun again. The combined supernatants were spun at 12,000 ×g for 20 min. The pellets were suspended in 10% sucrose and subjected to consecutive centrifugations at 20,000 ×g for 25 min and 14,000 ×g for 20 min twice resulting in crude synaptic plasma membranes (SPM). […]
Filters were rapidly washed with 3 × 5 mL ice-cold 50 mM Tris-HCl (pH 7.4) buffer, air-dried, and counted in a toluene-based scintillation cocktail in a Wallac 1409 scintillation counter (Wallac, Turku, Finland). […]

[4] = molecular target: T3, mu-opioid receptors (G-protein activation) (Rattus norvegicus, UniProt P33535); experiment: Ligand-stimulated [35S]GTPγS functional assay in crude rat brain membranes; assay type: biochemical
T3 construct: from tissue; host or cells: rat brain without cerebella, crude membranes
T3 sequence (P33535 whole entry): as above
Procedure: as §2

[5] = shown previously; cited from earlier work
[6] = molecular target: T2, mu-opioid receptors; conditions: icv administration, in situ autoradiography; cited from earlier work

## NC(=O)[C@H](Cc1ccccc1)NC(=O)[C@H](Cc1ccccc1)NC(=O)[C@H]1CCCC[C@H]1NC(=O)[C@@H](N)Cc1ccc(O)cc1 [ACHC-EM2, cis-1S,2R-aminocyclohexanecarboxylic acid^2-endomorphin-2]
[1]; 20 μg icv twice daily, rat tail-flick
  treatment duration until analgesic tolerance complete (antinociceptive effect ceased): ≤ 10 days
[1]; 20 μg icv twice daily, tested 5 and 15 min after injection
  day by which decrease of antinociceptive effect became statistically significant vs day 1: ≤ 5 days
[1]; rat tail-flick, after icv injection
  time of peak acute antinociceptive effect: 10 to 15 min
[1]; rat tail-flick, following icv injection
  time by which acute antinociceptive effect dissipated: ≤ 40 min
[1]; rat tail-flick, icv, lower doses, concentration-dependent
  increase in analgesic response compared to base-line values: 20–50%

## C[C@@H](NC(=O)[C@@H](N)Cc1ccc(O)cc1)C(=O)NCC(=O)N(C)[C@@H](Cc1ccccc1)C(=O)NCCO [DAMGO, Tyr-D-Ala-Gly-(NMe)Phe-Gly-ol]
[2]
  effect of chronic treatment on G-protein coupling / [35S]GTPγS incorporation: did not cause any change
[2]; read-out: E max (% over basal) MI Treated
  Emax: 72 ± 9%
[2]; read-out: E max (% over basal) SPM Treated
  Emax: 130 ± 14%
[2]; read-out: efficacy (E max) of DAMGO in control MI, MI of vehicle administered rats, % over basal
  Emax: 85 ± 9%
[2]; read-out: efficacy (E max) of DAMGO in control SPM, SPM of vehicle administered rats, % over basal
  Emax: 95 ± 5%
[3]
  decrease in the density of surface mu-sites (SPM): 22%
[4]
  agonist character in [35S]GTPγS assay: full agonist
[1]
  treatment duration until behavioral tolerance complete: ≤ 8 days
[5]
  antinociception: about 80%
  time of peak antinociceptive effect: about 30 min

## COC(=O)/C=C/C(=O)N[C@@H]1CC[C@@]2(O)[C@H]3Cc4ccc(O)c5c4[C@@]2(CCN3CC2CC2)[C@H]1O5 [beta-funaltrexamine]
[6]
  reduction of the density of mu-opioid receptors throughout the brain: 40–50%

## Tyr-D-Ala-Gly-(NMe)Phe-CH2Cl [DAMCK]
[2]
  effect of chronic treatment on G-protein coupling / [35S]GTPγS incorporation: attenuated G-protein coupling in the MI fraction
[3]
  increase in the density of mu-sites in the MI (light membrane) fraction: 40%
[1]
  treatment duration until behavioral tolerance complete: ≤ 8 days
[5]
  antinociception: about 80%
  duration of antinociception: apparently irreversible antinociception
